{
  "source": "patent US20200048469A1",
  "about": "“POLYMERIC TANDEM DYES HAVING PENDANT NARROW EMISSION ACCEPTOR” (Becton, Dickinson and Company, priority 2018, published 2020)",
  "key": {"[1]": {"assay": "Spectroscopic characterization of BODIPY dyes (absorption, emission, FWHM, quantum yield)", "format": "physicochemical", "conditions": "for Abs Max / Em Max: Table 1, free dye, solvent not stated; for FWHM: Table 1, full width half maximum of emission, free dye", "protocol": "(§1) A variety of BODIPY dyes were prepared and conjugated to polymeric dyes to prepare polymeric tandem dyes. […] The spectroscopic characteristics of particular BODIPY dyes and polymeric tandem dyes including the same were assessed. […] Further details of exemplary BODPY dyes and tandem dyes including the same are provided below in Tables 1 and 2."}, "[2]": {"assay": "Absorption and emission spectra of free narrow emission dyes in ethanol", "format": "physicochemical", "protocol": "as §1"}},
  "data": [
    {"compound": "Cc1cc(C)n2c1C=C1C=CC(CCC(=O)O)=[N+]1[B-]2(F)F", "note": "[BODIPY FL]", "values": [
      {"measurement": "Abs Max", "setting": "[1]", "result": 505, "unit": "nm"},
      {"measurement": "Em Max", "setting": "[1]", "result": 513, "unit": "nm"},
      {"measurement": "FWHM", "setting": "[1]", "result": 21, "unit": "nm"}
    ]},
    {"compound": "O=C(O)CCc1ccc2n1[B-](F)(F)[N+]1=C(c3ccccc3)C=CC1=C2", "note": "[BODIPY R6G]", "values": [
      {"measurement": "Abs Max", "setting": "[1]", "result": 533, "unit": "nm"},
      {"measurement": "Em Max", "setting": "[1]", "result": 550, "unit": "nm"},
      {"measurement": "FWHM", "setting": "[1]", "result": 26, "unit": "nm"}
    ]},
    {"compound": "CCN1\\C(=C/C=C/C=C/C2=[N+](CCCCCC(=O)O)c3ccc4c(S(=O)(=O)O)cc(S(=O)(=O)O)cc4c3C2(C)C)C(C)(C)c2c1ccc1c(S(=O)(=O)[O-])cc(S(=O)(=O)O)cc21", "note": "[Cy5.5]", "values": [
      {"measurement": "Dye Abs. max", "setting": "[2]; dye in ethanol", "result": 673, "unit": "nm"},
      {"measurement": "Dye Em. FWHM", "setting": "[2]; dye in ethanol", "result": 42, "unit": "nm"},
      {"measurement": "Dye Em. Max", "setting": "[2]; dye in ethanol", "result": 691, "unit": "nm"},
      {"measurement": "Dye Stokes Shift", "setting": "[2]; dye in ethanol", "result": 18, "unit": "nm"}
    ]},
    {"compound": "CCN1/C(=C/C=C/C=C/C2=[N+](CCCCCC(=O)O)c3ccc(S(=O)(=O)O)cc3C2(C)C)C(C)(C)c2cc(S(=O)(=O)[O-])ccc21", "note": "[Cy5]", "values": [
      {"measurement": "Dye Abs. max", "setting": "[2]; dye in ethanol", "result": 649, "unit": "nm"},
      {"measurement": "Dye Em. FWHM", "setting": "[2]; dye in ethanol", "result": 35, "unit": "nm"},
      {"measurement": "Dye Em. Max", "setting": "[2]; dye in ethanol", "result": 666, "unit": "nm"},
      {"measurement": "Dye Stokes Shift", "setting": "[2]; dye in ethanol", "result": 17, "unit": "nm"}
    ]},
    {"compound": "CCN1C(=CC=CC=CC=CC2=[N+](CCCCCC(=O)O)c3ccc(S(=O)(=O)O)cc3C2(C)C)C(C)(C)c2cc(S(=O)(=O)[O-])ccc21", "note": "[Cy7]", "values": [
      {"measurement": "Dye Abs. max", "setting": "[2]; dye in ethanol", "result": 752, "unit": "nm"},
      {"measurement": "Dye Em. FWHM", "setting": "[2]; dye in ethanol", "result": 52, "unit": "nm"},
      {"measurement": "Dye Em. Max", "setting": "[2]; dye in ethanol", "result": 776, "unit": "nm"},
      {"measurement": "Dye Stokes Shift", "setting": "[2]; dye in ethanol", "result": 24, "unit": "nm"}
    ]},
    {"compound": "BODIPY 581/591", "values": [
      {"measurement": "Abs Max", "setting": "[1]", "result": 582, "unit": "nm"},
      {"measurement": "Em Max", "setting": "[1]", "result": 590, "unit": "nm"},
      {"measurement": "FWHM", "setting": "[1]", "result": 29, "unit": "nm"}
    ]},
    {"compound": "BODIPY 630/650", "values": [
      {"measurement": "Abs Max", "setting": "[1]", "result": 630, "unit": "nm"},
      {"measurement": "Em Max", "setting": "[1]", "result": 641, "unit": "nm"},
      {"measurement": "FWHM", "setting": "[1]", "result": 30, "unit": "nm"}
    ]},
    {"compound": "BODIPY 650/665", "values": [
      {"measurement": "Abs Max", "setting": "[1]", "result": 650, "unit": "nm"},
      {"measurement": "Em Max", "setting": "[1]", "result": 665, "unit": "nm"},
      {"measurement": "FWHM", "setting": "[1]", "result": 37, "unit": "nm"}
    ]},
    {"compound": "BODIPY TMR", "values": [
      {"measurement": "Abs Max", "setting": "[1]", "result": 550, "unit": "nm"},
      {"measurement": "Em Max", "setting": "[1]", "result": 570, "unit": "nm"},
      {"measurement": "FWHM", "setting": "[1]", "result": 30, "unit": "nm"}
    ]},
    {"compound": "BODIPY TR", "values": [
      {"measurement": "Abs Max", "setting": "[1]", "result": 590, "unit": "nm"},
      {"measurement": "Em Max", "setting": "[1]", "result": 620, "unit": "nm"},
      {"measurement": "FWHM", "setting": "[1]", "result": 35, "unit": "nm"}
    ]},
    {"compound": "CF594", "values": [
      {"measurement": "Dye Abs. max", "setting": "[2]; measured in DMAC", "result": 592, "unit": "nm"},
      {"measurement": "Dye Em. FWHM", "setting": "[2]; measured in DMAC", "result": 37, "unit": "nm"},
      {"measurement": "Dye Em. Max", "setting": "[2]; measured in DMAC", "result": 615, "unit": "nm"},
      {"measurement": "Dye Stokes Shift", "setting": "[2]; measured in DMAC", "result": 23, "unit": "nm"}
    ]}
  ]
}
